# Assay results taken from a melting point compilation (Tetko et al.; mined from patent text by program, amines drawn as free bases though some values may be those of a salt).
row,melting point,SMILES
1,80 to 82 °C,O=c1oc(-c2cc(C(F)(F)F)cc(C(F)(F)F)c2)cc(O)c1Cc1ccccc1
2,202 to 205 °C,ON=c1cc(-c2cc3cccn3cn2)oc2ccc(OCCCOc3cccnc3)cc12
3,155 to 156 °C,C=CCOC(=O)c1ccccc1Cn1c(=O)n(S(=O)(=O)c2ccc(Cl)cc2)c(=O)c2ccc(Cl)cc21
4,> 320 °C,N#Cc1cn(Nc2c(Cl)cc(Cl)cc2Cl)c(=O)[nH]c1=O
5,86 to 87 °C,Cc1c(-c2ccccc2)oc2c(C#N)cccc12
6,173 to 175 °C,CCOc1ccc(-c2c(C)c3cc(O)ccc3n2Cc2ccc(OCCN3CCCCC3)cc2)cc1
7,147 to 148 °C,CC(C)(C)c1ccc(/C=C/C(=O)Nc2ccc3ncoc3c2)cc1
8,169 to 171 °C,COC(=O)Nc1cn2cccc(Sc3ccccc3)c2n1
9,174 to 180 °C,Cn1cc(C(=O)NS(=O)(=O)c2cccs2)cn1
10,92 to 93.5 °C,CS(=O)c1ccc(Oc2ccc(Cl)c(Cl)c2)cc1 (stereo not drawn)
11,223 to 224 °C,O=C(Nc1ccc(F)cc1O)c1cc(Cl)c(O)c(Cl)c1
12,195 to 198 °C,CCN(CC)C(=O)Nc1ccc(S(=O)(=O)N2C(=O)C(NCCCCCNC(C)=O)(c3ccccc3Cl)c3cc(Cl)ccc32)cc1 (stereo not drawn)
13,215 to 217 °C,Clc1ccc2c(Nc3ccccc3)ncnc2c1
14,79 to 81 °C,CCOC(=O)c1cnn(-c2ccc(Cl)c(Cl)c2)c1C#N
15,160 °C,Nc1nnc(C(CCc2ccccc2)NC(=O)c2ccc3[nH]c(-c4ccncc4)nc3c2)o1 (stereo not drawn)
16,199 °C,COC(=O)NCC1=C(n2ccccc2=O)c2cc([N+](=O)[O-])ccc2OC1(C)C
17,250 to 251 °C,Cc1nnc(-c2ccc3occ(-c4ccc(CS(C)(=O)=O)cc4)c3c2)o1
18,172 to 174 °C,Cc1cc(OC(=O)c2ccccc2)c2ccccc2c1O
19,147 to 149 °C,COC(=O)c1nc(Nc2cccc(C(F)(F)F)c2)sc1-c1ccccc1
20,168 to 169 °C,Fc1ccc(C=Nc2nc3ccc(Cl)cc3s2)cc1
21,77 to 78 °C,O=C1CCCCCC1C(c1ccc(Cl)cc1)[N+](=O)[O-] (racemic)
22,211 to 212 °C,COc1cn(-c2cc(F)c(N3CCOCC3)cc2F)nc(-c2ccnn2-c2ccccc2)c1=O
23,125 °C,COC1(C)CC(C)(C)c2ccc(Oc3ccc([N+](=O)[O-])cc3)cc2O1 (stereo not drawn)
24,178 °C,CC(=O)N1Cc2nc(Cl)nc(Nc3ccc(F)c(Cl)c3)c2N=C1Cl
25,125 to 130 °C,O=C1C(=O)c2ccc(Cl)cc2C2=C1SCC1(CCN(C(=O)c3cccc(Cl)c3)CC1)O2
26,95 to 96 °C,Cc1ccc(OCCN2CCN(c3cc(Cl)nnc3Cl)CC2)cc1
27,108 °C,Cc1ccccc1NC(C#N)c1c(Cl)cccc1Cl (stereo not drawn)
28,239 to 240 °C,Cc1[nH]c2ncnc(Nc3cccc(Cl)c3)c2c1C

row,melting point,SMILES
1,135 °C,CC(C)N(CCC(=O)OC1c2ccccc2C(=O)N1c1ccc2ccc(Cl)nc2n1)C(C)C (stereo not drawn)
2,> 250 °C,Cc1cc(-c2ccc(C(F)(F)F)cc2)cc(-c2nc(-c3cccc(S(N)(=O)=O)c3)cs2)n1
3,195 to 197 °C,COc1ccc(C(=O)Nc2ccccc2)cc1NC(=S)Nc1cc(Cl)cc(Cl)c1
4,292 to 294 °C,CN1CCC(Cn2c(=O)[nH]c3ncc(-c4ccc(O)cc4)nc32)CC1
5,223 to 224 °C,CCOC(=O)c1c(-c2ccccc2)c2cc(Cl)ccc2[nH]c1=O
6,145 to 146 °C,O=C(O)C(=O)c1ccc(OCc2ccc3ccccc3c2)cc1
7,104 to 106 °C,COc1cccc(C(O)c2nc3c(cc2C)CCCCC3)c1 (stereo not drawn)
8,68 to 70 °C,N#Cc1ccccc1OCC(O)CN1CCN(c2ncccc2F)CC1 (stereo not drawn)
9,170 to 171 °C,CCC(OC)(c1ccc(OCc2cc3ccccc3[nH]c2=O)c(OC)c1)c1nccs1 (stereo not drawn)
10,197 °C,Cn1nccc1OCc1c(S(C)(=O)=O)ccc(C(=O)O)c1Cl
11,246 to 249 °C,Cc1cn(-c2ccc(C(=N)N)cc2)c(=O)n1-c1ccc(CCC(=O)OC(C)C)cc1
12,189 to 191 °C,O=[N+]([O-])c1cccc(-c2csc(NS(=O)(=O)c3ccc(Cl)c(Cl)c3)n2)c1
13,202 to 204 °C,Cc1c(-c2ccccc2)c2cc(Cl)cc3c2n1CC3
14,193 to 195 °C,Cc1cc(C(=O)NC2=NC(C)(C)CC2(c2ccccc2)c2ccccc2)[nH]n1
15,60 to 62 °C,Nc1sc2c(c1C(=O)c1ccc(Cl)cc1)CCC(Cc1ccccc1)C2 (stereo not drawn)
16,151 to 154 °C,COc1cc(OC)nc(C2OC(=O)c3c(-c4ccccc4)ccnc32)n1 (stereo not drawn)
17,188 °C,Nc1ncnc2c1c(-c1ccc(Oc3ccccc3)cc1)cn2S(=O)(=O)C1CCCC1
18,113 to 115 °C,O=C(CN1C(=O)CC1S(=O)c1ccccc1)NCCCCCCc1ccc(Cl)cc1 (stereo not drawn)
19,175 to 177 °C,O=c1c(C(O)c2ccc(Cl)cc2)c(Cl)nc2n1CCS2 (stereo not drawn)
20,196 to 197 °C,CCCc1nn(C)c2c(=O)[nH]c(-c3cc(C(=O)N4CCN(C)CC4)ccc3OCC)nc12
21,268 to 270 °C,C[C@H]1COc2c(N3CC(C)(N)C4(CC4)C3)c(F)cc3c(=O)c(C(=O)O)cn1c23 (stereo partly drawn)
22,206 to 207 °C,Oc1cccc(Oc2nnc(Cc3ccncc3)c3ccccc23)c1
23,186 to 187 °C,O=C1CC(=O)/C(=C/c2ccccc2)N1
24,156 to 157 °C,O=C1c2cc(S(=O)(=O)N3CCCCC3)ccc2SC12CC2
25,154 to 156 °C,CCOC(=O)N1CCN(c2ccc(C3=NNC(=O)CC3C)cc2Cl)CC1 (stereo not drawn)
26,221 °C,Cc1ccnc(NC(=O)C2=C(O)c3ccc4ccccc4c3S(=O)(=O)N2C)c1
27,171 to 172 °C,CC1(C)OC(=O)C(Oc2ccc3ncccc3c2)=C1c1ccc(S(C)(=O)=O)cc1

# The next lines start with the molecule.
row,SMILES,melting point
1,CC(C)c1cc(C2SCC(=O)N2CCCCl)cc(C(C)C)c1O (stereo not drawn),105 to 106 °C
2,O=C(N[C@@H](Cc1ccccc1)C[C@H](O)[C@H](Cc1ccccc1)NC(=O)OCc1nccs1)OCc1nccs1,66 to 69 °C
3,Cc1oc2c(C)cc(C=O)cc2c1C,57 to 58 °C
4,COc1cc(C(=O)NC2CN(C)C2)ccc1Nc1ncc2c(n1)N(C1CCCC1)CC(F)(F)C(=O)N2C,157 to 162 °C
5,CCCCCCCCC(Br)C(=O)Nc1c(OC)cc(OC)cc1OC (stereo not drawn),109 to 110 °C
6,COc1ccc2nc3cc(OC)c(=O)c(Br)c-3sc2c1,260 to 261 °C
7,CCCC1(CCC)c2cc(Br)ccc2-c2cc(OC)c(Br)cc21,127 to 132 °C
8,Cc1cnc(Br)c(F)c1,32 to 33 °C
9,O=c1[nH]c2ccccc2c(=O)n1CCS,193 to 195 °C
10,CCCCCCCCCCCCCCC(O)C(O)C(N)CO (stereo not drawn),132 to 134 °C
11,CN(O)C(=O)Nc1ccc(Oc2ccc(NC(=O)N(C)O)cc2)cc1,183 to 184 °C
12,NC(=O)C1CCc2[nH]c3ccc(OC(F)(F)F)cc3c2C1 (stereo not drawn),177 to 178 °C
13,CCOc1cc([N+](=O)[O-])ccc1C(O)c1cc(C)ccn1 (stereo not drawn),114 to 115 °C
14,COc1cc(C=O)ccc1C1OC(CO)C(O)C(O)C1O (stereo not drawn),188 to 190 °C
15,CN(C)N=Nc1cc([N+](=O)[O-])sc1C(N)=O,240 to 246 °C
16,CC(CN1CCOCC1)N1CCN(c2ccccc2)CC1 (stereo not drawn),55 to 56 °C
17,COC(=O)C#CC(=O)c1ccc(OC)cc1,68 °C
18,CCOc1ccc([N+](=O)[O-])cn1,85 to 88 °C
19,CC(C)Cc1ccc([N+](=O)[O-])cc1C#N,73 °C
20,Cc1cccc(Oc2nc(-c3c[nH]nc3C)cs2)n1,138 to 139 °C
21,O=CC(=Cc1ccccc1OCc1ccccc1)C(C=O)=Cc1ccccc1OCc1ccccc1,120 to 121 °C
22,CCCNc1ccc2nc(NC(=O)c3ccc(C(C)(C)C)cc3)cn2n1,243 to 244 °C
23,COc1cc(/C=C/c2ccc(N)cc2)cc(OC)c1OC,251 to 253 °C
24,O=C(O)Cc1ccc(Oc2ccc(F)cc2)cc1,87 to 89 °C

row,SMILES,melting point
1,O=C1[C@@H](O)CCN1CC#CCn1ccnc1,127 to 128 °C
2,O=[N+]([O-])c1cc(Br)cc2c1[nH]c1ccc(Br)cc12,252 to 256 °C
3,COC(=O)c1nccc(N)n1,140 to 142 °C
4,O=C(Nc1n[nH]c2nc(Oc3ccc(F)cc3F)ncc12)C1CCCC1,206 to 208 °C
5,CCCCCc1cc2c(nc(O)n2CCc2ccccc2)c(N)n1,238 to 240 °C
6,c1ccc([C@H]2OC2(c2ccccc2)c2ccccc2)cc1,91 to 92 °C
7,CCOC(=O)NC(=S)N1CC1C#N (stereo not drawn),152 to 155 °C
8,OC(c1ccccc1)(c1cccc(C(F)(F)F)c1)c1ncc[nH]1 (stereo not drawn),152 °C
9,CC1=Nc2c(C)nn(CC(F)(F)F)c2C2=NC(C)CN12 (stereo not drawn),91 to 95 °C
10,CC(=O)NCCC1CCNCC1,60 °C
11,O=C(O)C(Cc1ccccc1)Oc1c(Br)cc(-c2ccc(-c3c(Cc4ccccc4)oc4ccccc34)cc2)cc1Br (stereo not drawn),90 to 92 °C
12,Cc1nc(N)c2nc3n(c2c1C)C(C)COC3 (stereo not drawn),264 to 267 °C
13,CCOC(=O)C1=C(C)NC(C)=C(C(=O)OCC)C1c1ccccc1OCc1ccccc1,134 to 136 °C
14,NC(=NCC(F)(F)F)Nc1ccnc(COCCO)n1,144 to 146 °C
15,CCCCCCC(C(=O)O)n1cnc([N+](=O)[O-])c1 (stereo not drawn),112 to 114 °C
16,CCOC(=O)CC(=O)Nc1c(F)cccc1[N+](=O)[O-],99 to 102 °C
17,N#CC1CN1Cc1ccccc1 (stereo not drawn),81 to 83 °C
18,CCCCc1nn(-c2ccc(C(F)(F)F)cn2)cc1CCCOc1cc(CC(=O)O)ccc1OCC,105 to 106 °C
19,CN(O)C(=O)NCCc1cccc(Oc2ccccc2)c1,84.5 to 86 °C
20,OCCN1C2CCC1CC(c1ccc3ccccc3c1)C2 (stereo not drawn),84 to 88 °C
21,N=C(NN=Cc1ccc(OC(F)C(F)(F)F)cc1)NN=Cc1ccc(OC(F)C(F)(F)F)cc1 (stereo not drawn),125 to 130 °C
22,N#Cc1ccc2c(c1)C(CCC1CC1)(C(F)(F)F)c1nc[nH]c(=O)c1N2 (stereo not drawn),> 280 °C
23,Cc1nn(C)c(C2=NC(C)C(C)N2)c1N (stereo not drawn),250 °C
24,CC(=O)SCC(CC(C)C)C(=O)NCCCCCC(N)=O (stereo not drawn),64 to 80 °C
